Assay results from patent US20260062422A1 (Halda Therapeutics OpCo, Inc., priority 2022, published 2026).

These molecules were tested against T1, progesterone receptor (Homo sapiens, UniProt P06401) (assay: PR Human Progesterone NHR Binding (Agonist Radioligand) Assay, T47D cytosol). Settings: T47D cytosolic fractions, 0.5 nM [3H]progesterone, 1 hour at 4° C., Table 16.
T1 construct: host or cells: T47D cells (cytosolic fraction)
T1 sequence (P06401 1-933): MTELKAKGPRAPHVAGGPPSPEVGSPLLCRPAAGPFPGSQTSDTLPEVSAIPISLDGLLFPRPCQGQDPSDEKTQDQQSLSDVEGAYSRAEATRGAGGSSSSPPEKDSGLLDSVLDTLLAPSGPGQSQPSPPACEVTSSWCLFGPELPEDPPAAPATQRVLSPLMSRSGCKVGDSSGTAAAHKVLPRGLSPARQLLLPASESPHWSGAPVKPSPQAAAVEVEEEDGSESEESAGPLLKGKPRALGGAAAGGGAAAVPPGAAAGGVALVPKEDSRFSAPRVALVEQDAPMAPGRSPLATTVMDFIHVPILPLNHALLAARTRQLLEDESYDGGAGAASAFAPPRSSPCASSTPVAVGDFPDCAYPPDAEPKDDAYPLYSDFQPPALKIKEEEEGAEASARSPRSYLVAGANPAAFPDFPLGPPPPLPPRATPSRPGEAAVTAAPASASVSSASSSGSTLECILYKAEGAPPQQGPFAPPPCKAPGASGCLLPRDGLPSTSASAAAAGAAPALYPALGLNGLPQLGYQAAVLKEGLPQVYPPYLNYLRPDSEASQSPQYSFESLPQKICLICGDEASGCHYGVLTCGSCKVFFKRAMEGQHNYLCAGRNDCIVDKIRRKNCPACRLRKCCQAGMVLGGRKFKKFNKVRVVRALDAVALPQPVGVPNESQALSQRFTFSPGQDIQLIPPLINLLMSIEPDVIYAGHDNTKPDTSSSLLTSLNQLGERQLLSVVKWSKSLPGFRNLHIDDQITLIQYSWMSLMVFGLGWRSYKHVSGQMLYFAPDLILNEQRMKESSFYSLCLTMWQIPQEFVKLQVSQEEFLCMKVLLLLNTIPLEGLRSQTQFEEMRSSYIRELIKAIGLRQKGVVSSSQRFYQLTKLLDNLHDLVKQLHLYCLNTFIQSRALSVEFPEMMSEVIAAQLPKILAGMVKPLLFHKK
Procedure: Compounds were tested using the PR Human Progesterone NHR Binding (Agonist Radioligand) Assay, Cerep at Eurofins Discovery using a modified version of the protocol from Sarup et al. (Cancer Res 1988; 48:5071-5078). Briefly, cytosolic fractions of T47D cells were incubated with 0.5 nM [^3H]progesterone for 1 hour at 4° C. in the absence or presence of the test compound. Nonspecific binding was determined in the presence of 1 μM promegestone. Reactions were subjected to scintillation counting. Results are expressed as a percent inhibition of the control radioligand specific binding.
With `Cc1sc2c(c1C)C(c1ccc(N3CC(CC4CCN(c5ncc(C(=O)N[C@H]6C(C)(C)[C@H](Oc7ccc(C#N)c(Cl)c7)C6(C)C)cn5)CC4)C3)cc1)=N[C@@H](C)c1nnc(C)n1-2` [Compound I-270] the Ki was less than 0.05 µM. `Cc1sc2c(c1C)C(c1ccc(OCCOC3CCN(c4ncc(C(=O)N[C@H]5C(C)(C)[C@H](Oc6ccc(C#N)c(Cl)c6)C5(C)C)cn4)CC3)cc1)=N[C@@H](CC(=O)OC(C)(C)C)c1nnc(C)n1-2` [Compound I-235, tert-butyl 2-((S)-4-(4-(2-((1-(5-(((1r,3r)-3-(3-chloro-4-cyanophenoxy)-2,2,4,4-tetramethylcyclobutyl)carbamoyl)pyrimidin-2-yl)piperidin-4-yl)oxy)ethoxy)phenyl)-2,3,9-trimethyl-6H-thieno[3,2-f][1,2,4]triazolo[4,3-a][1,4]diazepin-6-yl)acetate] was tested, and the Ki was less than 0.05 µM. `Cc1sc2c(c1C)C(c1ccc(CC3CC4(CCN(c5ncc(C(=O)N[C@H]6C(C)(C)[C@H](Oc7ccc(C#N)c(Cl)c7)C6(C)C)cn5)CC4)C3)cc1)=N[C@@H](C)c1nnc(C)n1-2` [Compound I-303] showed a Ki of less than 0.05 µM. With `Cc1sc2c(c1C)C(c1ccc(N3CC(C4CCN(c5ncc(C(=O)N[C@H]6C(C)(C)[C@H](Oc7ccc(C#N)c(Cl)c7)C6(C)C)cn5)CC4)C3)cc1)=N[C@@H](C)c1nnc(C)n1-2` [Compound I-271] the Ki was less than 0.05 µM. With `Cc1sc2c(c1C)C(c1ccc(CC3CC4(CCN(c5ncc(C(=O)N[C@H]6C(C)(C)[C@H](Oc7ccc(C#N)c(Cl)c7)C6(C)C)cn5)CC4)C3)cc1)=N[C@@H](C)c1nnc(C)n1-2` [Compound I-436] the Ki was 0.05 to 0.5 µM. With `CCNC(=O)C[C@@H]1N=C(c2ccc(N3CCC(OC4CCN(c5ncc(C(=O)N[C@H]6C(C)(C)[C@H](Oc7ccc(C#N)c(Cl)c7)C6(C)C)cn5)CC4)CC3)cc2)c2c(sc(C)c2C)-n2c(C)nnc21` [Compound I-114] the Ki was less than 0.05 µM. Molecule `Cc1sc2c(c1C)C(c1ccc(OC3CC4(C3)CC3(CCN(c5ncc(C(=O)N[C@H]6C(C)(C)[C@H](Oc7ccc(C#N)c(Cl)c7)C6(C)C)cn5)CC3)C4)cc1)=N[C@@H](Cc1ncco1)c1nnc(C)n1-2` [Compound I-283] has a Ki of less than 0.05 µM. With `CCNC(=O)C[C@@H]1N=C(c2ccc(OCC3CN(c4ncc(C(=O)N[C@H]5C(C)(C)[C@H](Oc6ccc(C#N)c(Cl)c6)C5(C)C)cn4)C3)cc2)c2c(sc(C)c2C)-n2c(C)nnc21` [Compound I-71] the Ki was less than 0.05 µM.

What follows are molecules tested against T2, progesterone receptor ligand binding domain (LBD) (Homo sapiens, UniProt P06401) (assay: FP assay (PolarScreen Progesterone Receptor Competitor Assay) for binding to progesterone receptor LBD). Settings: GST-tagged PR LBD, Fluormone tracer, fluorescence polarization, 2 hours; Table 17.
T2 construct: GST-tagged PR LBD, Fluormone tracer, and compound were mixed; purchased Life Technologies A15905 or a15906
T2 sequence (P06401 679-913 limits assumed): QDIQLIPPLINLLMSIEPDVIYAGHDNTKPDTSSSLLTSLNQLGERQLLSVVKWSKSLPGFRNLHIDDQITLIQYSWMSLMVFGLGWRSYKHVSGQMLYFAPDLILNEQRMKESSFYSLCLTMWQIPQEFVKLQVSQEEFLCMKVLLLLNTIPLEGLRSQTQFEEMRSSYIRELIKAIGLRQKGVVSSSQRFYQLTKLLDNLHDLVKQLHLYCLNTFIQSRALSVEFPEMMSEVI
Procedure: Compounds were tested using the PolarScreen™ Progesterone Receptor Competitor Assay Kit (Life Technologies Cat #A15905 or a15906), as per the manufacturer's instructions. Briefly, GST-tagged PR LBD, Fluormone tracer, and compound were mixed and incubated for 2 hours at room temperature in the dark. Following incubation, the plates were spun at 3000×g for 30 seconds, then sealed with an optical adhesive cover, and fluorescence polarization was measured using appropriate excitation and emission filters with an EnVision Plate Reader (Perkin Elmer). Compound concentration vs. mP value were plotted in Prism (GraphPad). A four-parameter non-linear regression curve fit was applied to dose-response data to determine the half-maximal inhibitory concentration (IC50) for each test compound.
In the case of `CCNC(=O)C[C@@H]1N=C(c2ccc(N3CCN(CC4CCN(c5ncc(C(=O)N[C@H]6C(C)(C)[C@H](Oc7ccc(C#N)c(Cl)c7)C6(C)C)cn5)CC4)CC3)cc2)c2c(sc(C)c2C)-n2c(C)nnc21` [Compound I-105, N-[3-(3-chloro-4-cyano-phenoxy)-2,2,4,4-tetramethyl-cyclobutyl]-2-[4-[[4-[4-[(9S)-9-[2-(ethylamino)-2-oxo-ethyl]-4,5,13-trimethyl-3-thia-1,8,11,12-tetrazatricyclo[8.3.0.02,6]trideca-2(6),4,7,10,12-pentaen-7-yl]phenyl]piperazin-1-yl]methyl]-1-piperidyl]pyrimidine-5-carboxamide], the IC50 is reported as 0.05 to 0.5 µM. Work on `Cc1sc2c(c1C)C(c1ccc(OCCOC3CCN(c4ncc(C(=O)N[C@H]5C(C)(C)[C@H](Oc6ccc(C#N)c(Cl)c6)C5(C)C)cn4)CC3)cc1)=N[C@@H](CC(=O)OC(C)(C)C)c1nnc(C)n1-2` [Compound I-235, tert-butyl 2-((S)-4-(4-(2-((1-(5-(((1r,3r)-3-(3-chloro-4-cyanophenoxy)-2,2,4,4-tetramethylcyclobutyl)carbamoyl)pyrimidin-2-yl)piperidin-4-yl)oxy)ethoxy)phenyl)-2,3,9-trimethyl-6H-thieno[3,2-f][1,2,4]triazolo[4,3-a][1,4]diazepin-6-yl)acetate] yielded an IC50 of less than 0.05 µM. For `Cc1sc2c(c1C)C(c1ccc(OC3CC4(CCN(c5ncc(C(=O)N[C@H]6C(C)(C)[C@H](Oc7ccc(C#N)c(Cl)c7)C6(C)C)cn5)CC4)C3)cc1)=NC(Cc1ncco1)c1nnc(C)n1-2` (some centres unmarked) [Compound I-166], the IC50 was 0.05 to 0.5 µM. With `CCNC(=O)C[C@@H]1N=C(c2ccc(N(C)C3CC(OC4CCN(c5ncc(C(=O)N[C@H]6C(C)(C)[C@H](Oc7ccc(C#N)c(Cl)c7)C6(C)C)cn5)CC4)C3)cc2)c2c(sc(C)c2C)-n2c(C)nnc21` (some centres unmarked) [Compound I-130] the IC50 was less than 0.05 µM. Work on `CCNC(=O)C[C@@H]1N=C(c2ccc(CCCN(C)c3ncc(C(=O)N[C@H]4C(C)(C)[C@H](Oc5ccc(C#N)c(Cl)c5)C4(C)C)cn3)cc2)c2c(sc(C)c2C)-n2c(C)nnc21` [Compound I-104] yielded an IC50 of 0.05 to 0.5 µM. `CCNC(=O)C[C@@H]1N=C(c2ccc(N(C3CC3)C3CN(CC4CCN(c5ncc(C(=O)N[C@H]6C(C)(C)[C@H](Oc7ccc(C#N)c(Cl)c7)C6(C)C)cn5)CC4)C3)cc2)c2c(sc(C)c2C)-n2c(C)nnc21` [Compound I-129] gave an IC50 of less than 0.05 µM.
